Species on record: Rattus norvegicus
Assay: DrugMatrix - Regimen: Daily Repeat
Format: toxicity, organism-based, Sprague-Dawley
Design: regimen Daily Repeat, gender Male, age 6-8 weeks
Conditions: in vivo, po, route oral GAVAGE, vehicle .5 % CMC; for ABSOLUTE BASOPHIL / BASOPHIL / EOSINOPHIL / ERYTHROCYTE COUNT / HEMATOCRIT / HEMOGLOBIN / LEUKOCYTE COUNT / LYMPHOCYTE / MEAN CORPUSCULAR HEMOGLOBIN / MEAN CORPUSCULAR HEMOGLOBIN CONCENTRATION / MEAN CORPUSCULAR VOLUME / MONOCYTE / NEUTROPHIL / PLATELET COUNT: tissue Blood; for ALANINE AMINOTRANSFERASE / ALBUMIN / ALKALINE PHOSPHATASE / ASPARTATE AMINOTRANSFERASE / BLOOD UREA NITROGEN / CHLORIDE / CHOLESTEROL / CREATINE PHOSPHOKINASE / CREATININE / GLUCOSE / PHOSPHORUS / POTASSIUM / SODIUM / TOTAL BILIRUBIN / TOTAL PROTEIN: tissue Plasma
[1] = 0 mg/kg, 72 h, dose level Control, time 3 day
[2] = 0 mg/kg, 120 h, dose level Control, time 5 day
[3] = 100 mg/kg, 72 h, dose level Low, time 3 day
[4] = 100 mg/kg, 120 h, dose level Low, time 5 day
[5] = 390 mg/kg, 72 h, dose level High, time 3 day
[6] = 390 mg/kg, 120 h, dose level High, time 5 day

CC[C@]1(O)CC[C@H]2[C@@H]3CCC4=CCCC[C@@H]4[C@H]3CC[C@@]21C
ABSOLUTE BASOPHIL [1]: 16.7 cells/µL
BASOPHIL [1]: 0.17%
EOSINOPHIL [1]: 0.62%
ERYTHROCYTE COUNT [1]: 6.55 x10E6/uL
HEMATOCRIT [1]: 42%
HEMOGLOBIN [1]: 13.48 G/DL
LEUKOCYTE COUNT [1]: 8.79 x10E3/uL
LYMPHOCYTE [1]: 76.98%
MEAN CORPUSCULAR HEMOGLOBIN [1]: 20.57 pg
MEAN CORPUSCULAR HEMOGLOBIN CONCENTRATION [1]: 32.08 G/DL
MEAN CORPUSCULAR VOLUME [1]: 64.1 fL
MONOCYTE [1]: 2.12%
NEUTROPHIL [1]: 19%
PLATELET COUNT [1]: 1432.17 x10E3/uL
ALANINE AMINOTRANSFERASE [1]: 42.83 u/L
ALBUMIN [1]: 3.63 G/DL
ALKALINE PHOSPHATASE [1]: 328.5 u/L
ASPARTATE AMINOTRANSFERASE [1]: 78.33 u/L
BLOOD UREA NITROGEN [1]: 14.5 mg/dL
CHLORIDE [1]: 104.5 MEQ/L
CHOLESTEROL [1]: 78.67 mg/dL
CREATINE PHOSPHOKINASE [1]: 282.33 u/L
CREATININE [1]: 0.25 mg/dL
GLUCOSE [1]: 173.67 mg/dL
PHOSPHORUS [1]: 12.83 mg/dL
POTASSIUM [1]: 6.7 MEQ/L
SODIUM [1]: 145.83 MEQ/L
TOTAL BILIRUBIN [1]: 0.4 mg/dL
TOTAL PROTEIN [1]: 5.93 G/DL
ABSOLUTE BASOPHIL [2]: 28 cells/µL
BASOPHIL [2]: 0.26%
EOSINOPHIL [2]: 0.44%
ERYTHROCYTE COUNT [2]: 6.99 x10E6/uL
HEMATOCRIT [2]: 45.12%
HEMOGLOBIN [2]: 14.26 G/DL
LEUKOCYTE COUNT [2]: 9.42 x10E3/uL
LYMPHOCYTE [2]: 79.92%
MEAN CORPUSCULAR HEMOGLOBIN [2]: 20.44 pg
MEAN CORPUSCULAR HEMOGLOBIN CONCENTRATION [2]: 31.62 G/DL
MEAN CORPUSCULAR VOLUME [2]: 64.6 fL
MONOCYTE [2]: 2.2%
NEUTROPHIL [2]: 16.14%
PLATELET COUNT [2]: 1062.2 x10E3/uL
ALANINE AMINOTRANSFERASE [2]: 44 u/L
ALBUMIN [2]: 3.73 G/DL
ALKALINE PHOSPHATASE [2]: 342.6 u/L
ASPARTATE AMINOTRANSFERASE [2]: 74.17 u/L
BLOOD UREA NITROGEN [2]: 13 mg/dL
CHLORIDE [2]: 103 MEQ/L
CHOLESTEROL [2]: 72.83 mg/dL
CREATINE PHOSPHOKINASE [2]: 184.67 u/L
CREATININE [2]: 0.47 mg/dL
GLUCOSE [2]: 168.17 mg/dL
PHOSPHORUS [2]: 12.27 mg/dL
POTASSIUM [2]: 6.98 MEQ/L
SODIUM [2]: 147 MEQ/L
TOTAL BILIRUBIN [2]: 0.65 mg/dL
TOTAL PROTEIN [2]: 6.23 G/DL
ABSOLUTE BASOPHIL [3]: 23.3 cells/µL
BASOPHIL [3]: 0.23%
EOSINOPHIL [3]: 0.63%
ERYTHROCYTE COUNT [3]: 7.14 x10E6/uL
HEMATOCRIT [3]: 43.57%
HEMOGLOBIN [3]: 14.03 G/DL
LEUKOCYTE COUNT [3]: 12.51 x10E3/uL
LYMPHOCYTE [3]: 79.1%
MEAN CORPUSCULAR HEMOGLOBIN [3]: 19.63 pg
MEAN CORPUSCULAR HEMOGLOBIN CONCENTRATION [3]: 32.2 G/DL
MEAN CORPUSCULAR VOLUME [3]: 61 fL
MONOCYTE [3]: 2.57%
NEUTROPHIL [3]: 16.13%
PLATELET COUNT [3]: 1395 x10E3/uL
ALANINE AMINOTRANSFERASE [3]: 38 u/L
ALBUMIN [3]: 3.67 G/DL
ALKALINE PHOSPHATASE [3]: 426 u/L
ASPARTATE AMINOTRANSFERASE [3]: 66.33 u/L
BLOOD UREA NITROGEN [3]: 10.33 mg/dL
CHLORIDE [3]: 103.33 MEQ/L
CHOLESTEROL [3]: 51 mg/dL
CREATINE PHOSPHOKINASE [3]: 235.33 u/L
CREATININE [3]: 0.33 mg/dL
GLUCOSE [3]: 164.33 mg/dL
PHOSPHORUS [3]: 12.4 mg/dL
POTASSIUM [3]: 6.67 MEQ/L
SODIUM [3]: 145 MEQ/L
TOTAL BILIRUBIN [3]: 0.47 mg/dL
TOTAL PROTEIN [3]: 6 G/DL
ABSOLUTE BASOPHIL [4]: 56.7 cells/µL
BASOPHIL [4]: 0.47%
EOSINOPHIL [4]: 0.23%
ERYTHROCYTE COUNT [4]: 6.95 x10E6/uL
HEMATOCRIT [4]: 44.83%
HEMOGLOBIN [4]: 14.17 G/DL
LEUKOCYTE COUNT [4]: 12.16 x10E3/uL
LYMPHOCYTE [4]: 86.2%
MEAN CORPUSCULAR HEMOGLOBIN [4]: 20.37 pg
MEAN CORPUSCULAR HEMOGLOBIN CONCENTRATION [4]: 31.6 G/DL
MEAN CORPUSCULAR VOLUME [4]: 64.47 fL
MONOCYTE [4]: 2%
NEUTROPHIL [4]: 10.03%
PLATELET COUNT [4]: 1290.67 x10E3/uL
ALANINE AMINOTRANSFERASE [4]: 38.67 u/L
ALBUMIN [4]: 3.67 G/DL
ALKALINE PHOSPHATASE [4]: 360 u/L
ASPARTATE AMINOTRANSFERASE [4]: 55 u/L
BLOOD UREA NITROGEN [4]: 10.67 mg/dL
CHLORIDE [4]: 99 MEQ/L
CHOLESTEROL [4]: 42 mg/dL
CREATINE PHOSPHOKINASE [4]: 164 u/L
CREATININE [4]: 0.2 mg/dL
GLUCOSE [4]: 173.33 mg/dL
PHOSPHORUS [4]: 12.6 mg/dL
POTASSIUM [4]: 7.33 MEQ/L
SODIUM [4]: 147 MEQ/L
TOTAL BILIRUBIN [4]: 0.33 mg/dL
TOTAL PROTEIN [4]: 6.1 G/DL
ABSOLUTE BASOPHIL [5]: 36.7 cells/µL
BASOPHIL [5]: 0.27%
EOSINOPHIL [5]: 0.43%
ERYTHROCYTE COUNT [5]: 7 x10E6/uL
HEMATOCRIT [5]: 42.77%
HEMOGLOBIN [5]: 14.3 G/DL
LEUKOCYTE COUNT [5]: 13.01 x10E3/uL
LYMPHOCYTE [5]: 77.23%
MEAN CORPUSCULAR HEMOGLOBIN [5]: 20.43 pg
MEAN CORPUSCULAR HEMOGLOBIN CONCENTRATION [5]: 33.43 G/DL
MEAN CORPUSCULAR VOLUME [5]: 61.2 fL
MONOCYTE [5]: 2.47%
NEUTROPHIL [5]: 18%
PLATELET COUNT [5]: 1291 x10E3/uL
ALANINE AMINOTRANSFERASE [5]: 42.67 u/L
ALBUMIN [5]: 3.6 G/DL
ALKALINE PHOSPHATASE [5]: 336.67 u/L
ASPARTATE AMINOTRANSFERASE [5]: 63.33 u/L
BLOOD UREA NITROGEN [5]: 11.33 mg/dL
CHLORIDE [5]: 102.33 MEQ/L
CHOLESTEROL [5]: 36.33 mg/dL
CREATINE PHOSPHOKINASE [5]: 193 u/L
CREATININE [5]: 0.4 mg/dL
GLUCOSE [5]: 166 mg/dL
PHOSPHORUS [5]: 11.2 mg/dL
POTASSIUM [5]: 6.37 MEQ/L
SODIUM [5]: 145.67 MEQ/L
TOTAL BILIRUBIN [5]: 0.63 mg/dL
TOTAL PROTEIN [5]: 5.87 G/DL
ABSOLUTE BASOPHIL [6]: 200 cells/µL
BASOPHIL [6]: 1.57%
EOSINOPHIL [6]: 0.97%
ERYTHROCYTE COUNT [6]: 8.29 x10E6/uL
HEMATOCRIT [6]: 52.23%
HEMOGLOBIN [6]: 16.3 G/DL
LEUKOCYTE COUNT [6]: 13.36 x10E3/uL
LYMPHOCYTE [6]: 79.5%
MEAN CORPUSCULAR HEMOGLOBIN [6]: 19.77 pg
MEAN CORPUSCULAR HEMOGLOBIN CONCENTRATION [6]: 31.27 G/DL
MEAN CORPUSCULAR VOLUME [6]: 63.17 fL
MONOCYTE [6]: 1.77%
NEUTROPHIL [6]: 14.97%
PLATELET COUNT [6]: 1359.67 x10E3/uL
ALANINE AMINOTRANSFERASE [6]: 31 u/L
ALBUMIN [6]: 4.13 G/DL
ALKALINE PHOSPHATASE [6]: 287.67 u/L
ASPARTATE AMINOTRANSFERASE [6]: 54.67 u/L
BLOOD UREA NITROGEN [6]: 14 mg/dL
CHLORIDE [6]: 104.33 MEQ/L
CHOLESTEROL [6]: 60 mg/dL
CREATINE PHOSPHOKINASE [6]: 166 u/L
CREATININE [6]: 0.37 mg/dL
GLUCOSE [6]: 151.33 mg/dL
PHOSPHORUS [6]: 11.3 mg/dL
POTASSIUM [6]: 7 MEQ/L
SODIUM [6]: 155 MEQ/L
TOTAL BILIRUBIN [6]: 0.4 mg/dL
TOTAL PROTEIN [6]: 7.07 G/DL

From ChEMBL document CHEMBL3885881, “DrugMatrix”
